Literature values, collected in publication PMC7926471 (Viruses, 2021).

Test system: SARS-CoV-2
Details: pre and post treatment of Vero E6 cultures; cited from earlier work

SMILES: CCN(CC)CCCC(C)Nc1ccnc2cc(Cl)ccc12 (centres unmarked) [Chloroquine, chloroquine diphosphate]
- EC50: 1.13 µM
- EC90: 6.9 µM
